Experimental data reported in patent publication US9737517B2, “Pharmaceutical use of hexahydro-dibenzo[a,g]quinolizine compounds” (SHANGHAI INSTITUTE OF MATERIA MEDICA, CHINESE ACADEMY OF …, priority 2013, dated 2017).

Key:
α1D-AR = target: T1, α1D-AR (Homo sapiens, UniProt P25100); test: Calcium mobilization (Fluo-4) antagonism of phenylephrine in HEK293 cells expressing α1D-AR/Gα16; assay type: cell-based; conditions: phenylephrine 30 nM
T1 construct: expressed in transfected cells; host or cells: HEK293
T1 sequence (P25100 1-572): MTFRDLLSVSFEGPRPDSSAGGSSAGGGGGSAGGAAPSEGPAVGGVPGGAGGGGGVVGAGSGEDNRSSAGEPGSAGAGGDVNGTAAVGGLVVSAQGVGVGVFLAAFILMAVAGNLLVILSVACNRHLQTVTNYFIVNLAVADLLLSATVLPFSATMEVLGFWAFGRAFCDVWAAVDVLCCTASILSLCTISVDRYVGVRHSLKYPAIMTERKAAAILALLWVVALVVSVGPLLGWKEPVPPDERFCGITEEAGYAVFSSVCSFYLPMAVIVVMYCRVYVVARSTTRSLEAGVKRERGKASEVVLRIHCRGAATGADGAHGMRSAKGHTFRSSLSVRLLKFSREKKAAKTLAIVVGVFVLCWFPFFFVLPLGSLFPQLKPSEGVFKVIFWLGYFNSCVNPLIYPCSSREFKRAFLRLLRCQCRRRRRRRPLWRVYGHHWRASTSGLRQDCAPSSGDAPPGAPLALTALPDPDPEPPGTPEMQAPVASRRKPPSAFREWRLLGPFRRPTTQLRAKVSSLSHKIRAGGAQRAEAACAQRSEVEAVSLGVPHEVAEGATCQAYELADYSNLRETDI
Experimental: (§1) HEK293 cells stably expressing α1A-AR/Gα16, α1B-AR/Gα16, α1D-AR/Gα16 were seeded in a 96-well plate, and cultured for 24 hours. Then the medium was removed and 40 μL Hank's balanced salt solution (HBSS: containing 5.4 mM KCl, 0.3 mM Na2HPO4, 0.4 mM KH2PO4, 4.2 mM NaHCO3, 1.3 mM CaCl2, 0.5 mM MgCl2, 0.6 mM MgSO4, 137 mM NaCl, 5.6 mM D-glucose, and 250 μM sulfinpyrazone, pH 7.4) containing 2 μM Fluo-4 AM was added into each well, and incubated at 37° C. for 45 min. Dye was removed and 50 μL of HBSS containing either test compound or 1% DMSO (negative control) was added. After incubation at room temperature for 10 min, Flex Station 3 microplate reader was used to read the value. At specified time points, 25 μL of agonist (phenylephrine, final concentration 30 nM) was dispensed into the well automatically using the reader and fluorescence intensity change of dye caused by intracellular calcium concentration change was detected at an excitation wavelength of 485 nm and an emission wavelength of 525 nm.
(§2) After incubation with different drugs, the reaction rate of cells to 1-AR agonist phenylephrine was calculated as follows: Reaction rate %=(D−B)/(S−B)*100%;
(§3) The reaction rate of the same drug at different doses was tested using GraphPad Prism software by non-linear regression analysis, and the dose-response curve was obtained and IC50 values was measured. Data were obtained from three separate experiments, and each experiment included three duplicate wells.

α1A-AR [1] = target: T2, α1A-AR (Homo sapiens, UniProt P35348); test: Calcium mobilization (Fluo-4) antagonism of phenylephrine in HEK293 cells expressing α1A-AR/Gα16; assay type: cell-based; conditions: for IC50: HEK293 α1A-AR/Gα16, calcium mobilization, phenylephrine 30 nM; for α1B/α1A: ratio of cell IC50 values, calcium mobilization
T2 construct: expressed in transfected cells; host or cells: HEK293
T2 sequence (P35348 1-466): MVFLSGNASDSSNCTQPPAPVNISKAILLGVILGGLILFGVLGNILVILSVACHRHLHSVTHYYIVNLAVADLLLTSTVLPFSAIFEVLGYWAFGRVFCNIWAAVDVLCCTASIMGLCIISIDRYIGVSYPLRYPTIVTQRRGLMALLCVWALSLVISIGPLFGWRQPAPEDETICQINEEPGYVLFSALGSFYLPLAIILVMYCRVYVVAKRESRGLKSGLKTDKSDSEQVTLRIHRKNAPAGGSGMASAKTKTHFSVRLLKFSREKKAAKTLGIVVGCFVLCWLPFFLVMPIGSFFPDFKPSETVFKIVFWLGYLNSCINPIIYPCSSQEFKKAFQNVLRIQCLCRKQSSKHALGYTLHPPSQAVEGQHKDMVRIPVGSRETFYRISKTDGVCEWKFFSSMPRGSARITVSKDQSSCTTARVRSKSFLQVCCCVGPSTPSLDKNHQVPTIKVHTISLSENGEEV
Experimental: as §1, §2, §3

α1B-AR [2] = target: T3, α1B-AR (Homo sapiens, UniProt P35368); test: Calcium mobilization (Fluo-4) antagonism of phenylephrine in HEK293 cells expressing α1B-AR/Gα16; assay type: cell-based; conditions: phenylephrine 30 nM
T3 construct: expressed in transfected cells; host or cells: HEK293
T3 sequence (P35368 1-520): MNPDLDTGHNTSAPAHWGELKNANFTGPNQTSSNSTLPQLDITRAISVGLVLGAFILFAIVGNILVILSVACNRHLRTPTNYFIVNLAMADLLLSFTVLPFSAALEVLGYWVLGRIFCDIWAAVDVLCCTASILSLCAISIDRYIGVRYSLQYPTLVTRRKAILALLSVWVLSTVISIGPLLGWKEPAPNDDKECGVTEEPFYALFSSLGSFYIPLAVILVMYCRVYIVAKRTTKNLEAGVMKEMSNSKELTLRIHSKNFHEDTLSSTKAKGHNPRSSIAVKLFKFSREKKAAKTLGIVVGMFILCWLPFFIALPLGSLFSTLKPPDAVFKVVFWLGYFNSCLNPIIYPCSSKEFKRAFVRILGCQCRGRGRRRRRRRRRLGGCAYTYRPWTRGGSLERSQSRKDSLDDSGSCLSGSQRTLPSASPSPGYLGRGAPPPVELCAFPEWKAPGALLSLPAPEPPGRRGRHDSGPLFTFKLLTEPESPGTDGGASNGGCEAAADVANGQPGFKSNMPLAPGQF
Experimental: as §1, §2, §3

α1B-AR [3] = target: T3, α1B-AR; test: Tag-lite receptor binding assay, HEK293 cells expressing SNAP-α1B-AR
From the text: (§4) Tag-lite assay was used to study receptor binding activity. Tag-lite assay was a combination of SNAP-Tag and HTRF technology, and was used to analyze surface receptors on live cell. SNAPs were small tag fusion proteins which could irreversibly, specifically and covalently bind to substrates via benzylmethyl, and the substrates were benzylmethyl guanine and benzylmethyl cytosine. Substrates and various dyes formed derivatives, and through covalent reaction, the dye was labeled onto SANPs. Plasmid was constructed using pSNAP and α1-AR encoding gene. After transfection into cells, N-terminal fusion protein of SNAP and α1-AR was expressed. The substrate and HTRF fluorescent dye (donor compound Lumi4-Tb) formed a derivative which reacted with SANP-α1-AR fusion protein so that Tb was labeled onto α1-AR. After adding acceptor fluorescent dye-labeled ligand, the receptor and ligand binding experiment was performed.
(§5) HEK293 cells stably expressing SNAP-α1A-AR, SNAP-α1B-AR, SNAP-α1D-AR were seeded in 3 cm dishes, and cultured for 24 hours. 100 nM Tag-lite SNAP Lumi4Tb was added and incubated for 1 h in an incubator. Cells were detached and washed with a labeling buffer for 4 times, and then was added into a 384-well plate in a volume of 10 μL per well. […] After incubation at room temperature for 1 hour, fluorescence intensity changes caused by cell receptor and ligand changes were detected using 665 nm (acceptor) and 620 nm (donor) at same time.
(§6) After incubation with different drugs, the reaction rate of cells to 1-AR fluorescein-labeled known ligand was calculated as follows: Reaction rate %=(D−B)/(S−B)*100%
as §3, with “Ki” for “IC50”, “includes” for “included”

[4] = test system: vascular smooth muscle (thoracic aorta); test: In vitro vascular smooth muscle experiment (norepinephrine-induced contraction of thoracic aorta rings); set-up: species or system Wistar rats; conditions: isolated rat thoracic aorta rings, norepinephrine 10^−7 mol/L
Experimental: Healthy male Wistar rats were hit head to cause faint. The abdominal cavity was quickly cut, and the thoracic aorta was taken out. The attached tissue was separated and cut into 2-3 mm vascular rings. The experiment was carried out in the same manner as in urethral smooth muscle experiment. The resting tension applied was 1 g, and when baseline was stabilized, norepinephrine was added with a final concentration of 10^−7 mol/L in bath tube. When the contraction curve reached the highest point, rinse was performed immediately to recover to baseline levels. When baseline was stabilized, test drug with different concentrations was added respectively, and incubated 3-5 mins. 20 μL 1×10^−4 M norepinephrine was added with a final concentration of 10^−7 mol/L in bath tube, and contraction curve was recorded.

urethra smooth muscle = test: In vitro urethra smooth muscle experiment (norepinephrine-induced contraction); set-up: species or system Wistar rats; Urethra inhibition rate (%): concentration or dose not given beside the values; conditions: for IC50: isolated rat prostatic urethra, norepinephrine 3×10^−4 mol/L; for Urethra inhibition rate (%): isolated rat urethra, norepinephrine-induced contraction; for Aorta/Urethra: selectivity ratio of IC50 values, isolated rat tissues
Experimental: Healthy male Wistar rats were hit head to cause faint. The abdominal cavity and the pubic symphysis was quickly cut so as to quickly remove the prostatic urethra, which was immediately placed into a dish filled with 4° C. Kerbs-Henseleit solution (K-H solution). The surrounding tissue were carefully separated, and muscle strips about 3-5 mm were obtained, and the lower end was fixed onto a 20 mL of thermostatic bath and the upper end was connected onto a pressure transducer. Nutrient liquid was K-H solution, and carbogen (95% oxygen and 5% carbon dioxide) was aerated, and the bath temperature was 37° C., and resting tension applied was 0.5 g. The nutrient liquid was replaced every 6-8 mins. Until baseline stabilized, norepinephrine was added with a final concentration of 3×10^−4 mol/L in bath tube. When the contraction curve reached the highest point, it was rinsed immediately to recover to baseline levels. When baseline was stabilized, test drug with different concentrations was added respectively, and incubated 3-5 mins. 60 μL 1×10^−1 M norepinephrine was added with a final concentration of 3×10^−4 mol/L in bath tube, and the contraction curve was recorded.

α1A-AR [5] = target: T2, α1A-AR; test: Tag-lite receptor binding assay, HEK293 cells expressing SNAP-α1A-AR
From the text: as §4, §5, §6
as §3, with “Ki” for “IC50”, “includes” for “included”

Row | Compound | IC50 (α1D-AR) | IC50 (α1A-AR [1]) | α1B/α1A (α1A-AR [1]) | IC50 (α1B-AR [2]) | IC50 (α1B-AR [3]) | IC50 [4] | IC50 (urethra smooth muscle) | Urethra inhibition rate (%) (urethra smooth muscle) | Aorta/Urethra (urethra smooth muscle) | IC50 (α1A-AR [5]; Tag-lite binding, HEK293 SNAP-α1A-AR) | α1B/α1A (α1A-AR [5]; ratio of Tag-lite binding values)
1 | COc1cc2c(cc1OC)CN1CCc3cc(OC)c(OC)cc3[C@@H]1C2 [DC037003] | 2480 nM | 91.3 nM | 2731 | 249000 nM | – | – | – | – | – | – | –
2 | COc1ccc2c(c1)CCN1Cc3cc(OC)c(OC)cc3C[C@@H]21 [DC037004] | 422 nM | 93.9 nM | 2.0 | 189 nM | – | – | – | – | – | – | –
3 | COc1cc2c(cc1OC)[C@@H](C)N1CCc3cc(OC)c(OC)cc3[C@@H]1C2 [DC037002] | 2520 nM | 502 nM | 34.2 | 17200 nM | – | – | – | – | – | – | –
4 | COc1cc2c(cc1OC)[C@@H]1Cc3cc(C)cc(C)c3CN1CC2 [DC037011] | 2640 nM | 532 nM | 64.4 | 34300 nM | – | – | – | – | – | – | –
5 | COc1cc2c(cc1OC)C1Cc3cc4c(cc3CN1CC2)OCO4 (centres unmarked) [DC037008] | 2120 nM | 552 nM | 125 | 68800 nM | – | – | – | – | – | – | –
6 | COc1cc2c(cc1OC)CN1CCc3cc4c(cc3C1C2)OCO4 (centres unmarked) [DC037012] | 242 nM | 257 nM | 29.2 | 7520 nM | – | – | – | – | – | – | –
7 | COc1cc2c(cc1OCc1ccccc1)CN1CCc3cc4c(cc3[C@@H]1C2)OCO4 [DC037014] | 1340 nM | 303 nM | 118.5 | 35900 nM | – | – | – | – | – | – | –
8 | CCOc1ccccc1OCCN[C@H](C)Cc1ccc(OC)c(S(N)(=O)=O)c1 [Tamsulosin, reference compound] | 0.18 nM | – | – | 3.08 nM | 0.16 nM | 0.25 nM | 0.47 nM | 82% | 0.53 | – | –
9 | COc1cc2c(cc1O)[C@@H]1Cc3cc4c(cc3CN1CC2)OCO4 [DC037013] | 263 nM | 268 nM | 16.1 | 4310 nM | – | – | – | – | – | – | –
10 | COc1cc2c(cc1OC)CN1CCc3cc(OC)c(OC)cc3C1C2 (centres unmarked) [DC037001] | 8710 nM | 123 nM | 1.4 | 174 nM | – | – | – | – | – | – | –
11 | COc1ccc(OC)c2c1C[C@H]1c3cc4c(cc3CCN1C2)OCO4 [DC037007] | 75.8 nM | 969 nM | 13.4 | 13000 nM | – | – | – | – | – | – | –
12 | COc1cc2c(c(OC)c1OC)CN1CCc3cc4c(cc3[C@@H]1C2)OCO4 [DC037010] | 2560 nM | 238 nM | 5.0 | 1200 nM | – | – | – | – | – | – | –
13 | COc1cc2c(cc1OCC(F)F)C[C@H]1c3cc4c(cc3CCN1C2)OCO4 [DC037018] | – | – | – | – | 48.6 nM | 2210 nM | 147 nM | 61% | 61 | 0.95 nM | 51.2
14 | COc1cc2c(cc1OC)[C@@H]1Cc3cc4c(cc3CN1CC2)OCO4 [DC037005] | 2950 nM | 160 nM | 10.3 | 1650 nM | – | – | – | – | – | – | –
